Where “and” joins values, the source holds several entries; their conditions need not be identical. Equal values may be shown once.
Columns and labels:
[1] = test system: TGFβ; assay: Luminex assay of patient plasma, TGFβ; format: in vivo, human
Protocol: (§1) The plasma sample collected from the blood of patients listed in (Table 1 below) was thawed and centrifuged at 10,000 rpm at 4° C. for 2 minutes, and the supernatant was used for analysis. The supernatant was serially diluted, and 50 μl of the samples were dispensed to each well in a 96-well plate. 5O μl of diluted Microparticle Cocktail (R&D systems) shown in Table 2 was added to each well containing samples and incubated for 2 hours at room temperature on a shaker at 800 rpm. The sample mixture was removed and washed with 100 μl of washing buffer three times. Then, 50 μL of diluted Biotin-Antibody Cocktail (R&D systems) to each well and incubate for 1 hour at RT on the shaker at 800 rpm, followed by three times of washing with wash buffer. 50 μL of diluted […] at RT on the shaker at 800 rpm. After washing with wash buffer three times, 100 μl of wash buffer was added to each well, and the sample's fluorescence intensity was obtained using a Luminex analyzer (Luminex) within 90 mins.
(§2) Standard, control and the sample was quantitatively analyzed using the average value of the results obtained by duplicate test.
(§3) The absolute value of each sample's mean fluorescence intensity (MFI) was obtained by comparing it to the standard curve. The value derived as an under-standard was marked as 0 because it is a trace value outside the detection range of the assay kit.
(§4) The standard curve was obtained by the best fit method in ‘MasterPlex QT 2010 (MiraiBio, Hitachi, CA, USA)’ to calculate the response measured value (MFI) for each standard concentration, which has the highest R square value among each calculation method (Highest value =1.0). The sample's resultant concentration value was calculated based on this standard curve.

[2] = Phase 2 clinical study of EC-18, safety (SAE/AE, MTD); format: in vivo
Protocol: (§5) For the study, 25 large institutions and hospitals experienced with head and neck cancer treatment were selected • Stage 1: To Evaluate safety and MTD that can be used for Stage 2 iDSMB: Data and Safety Monitoring Board reviewed safety data every 2 weeks and approved for Stage 2 using MTD 2000 mg. • Stage 2: To Evaluate safety and efficacy 7 weeks Active and 4-6 weeks of STFU until OM is resolved. • 2.0-2.2 Gy daily fraction (5 days a week for 7 weeks) and I week (40 mg/m2) or every 3 weeks (100 mg/m2) cisplatin. • Minimum cumulative radiation dose of 55 Gy.
Stage 1 had 17 total SAEs from a total of 24 patients when Stage 2 had 31 total SAEs from a total of 81 patients. 020-018 patient was determined by investigator to be not related to study drug. Many SAEs occurred due to nausea and vomiting which is a normal symptom for chemo treatment

[3] = test system: severe oral mucositis (SOM); assay: Phase 2 clinical study of EC-18 in chemoradiation-induced oral mucositis (efficacy); format: in vivo, human
From the text: Human patients of the following characteristics were enrolled: • 18 years or older • Diagnosis of squamous cell carcinoma of the mouth, oropharynx, hypopharynx or nasopharynx • Planned to receive IMRT with daily fractions of 2.0 Gy to 2.2 Gy to a cumulative dose of at least 60 Gy and a maximum of 72 Gy • Radiation fields to include at least two mucositis sites at risk (buccal mucosa, floor of mouth, ventral and lateral tongue, soft palate) in which both sites receive a minimum cumulative dose of 55 Gy • Planned to receive concomitant single agent chemotherapy with cisplatin
EC-18 was administered in varying patients of the treatment group up to 2000 mg/day. Recommended therapy was 500 mg EC-18 capsule administered 4 times throughout the day (e.g., 2 capsules of 500 mg EC-18 administered within 30 mins after taking breakfast and dinner) for a total daily dosage of 2000 mg EC-18 per day. Treatment protocol lasted 7 weeks while radiation therapy and cisplatin therapy continued during the same time.
as §5
For Efficacy, measured duration of severe oral mucositis (SOM), Incidence of SOM during active treatment.
In Stage 1, we included Stage 1 placebo and 2000 mg patients to Stage 2 for efficacy analysis: • Placebo group: Stage 1 n=2, Stage 2 n=18: Total: 20 • EC-18 2000 mg group: Stage 1 n=5, Stage 2 n=17: Total: 22

[4] = test system: IL-1β; assay: Luminex assay of patient plasma, IL-1β; format: in vivo, human
Protocol: as §1, §2, §3, §4

[5] = regardless of the incidence of SOM
[6] = PP population, EC-18 2,000 mg vs placebo

Question: For `CCCCC/C=C\C/C=C\CCCCCCCC(=O)OC(COC(C)=O)COC(=O)CCCCCCCCCCCCCCC` (centres unmarked) [EC-18], which “TGF-β concentration vs placebo, total” value ([1]; 7th week of chemoradiation therapy) is on record?
Answer: The value was “significantly higher than the placebo group”.

Question: What about the “TGF-β concentration vs placebo, HPV-positive” value ([1]; HPV-positive population) of the same compound?
Answer: The value was “significantly higher compared with placebo”.

Question: And the “TGF-β concentration vs placebo, with or without SOM” value [1, 5]?
Answer: Its value is “higher compared with the placebo group”.

Question: And the “TGFβ concentration vs placebo, tri-weekly cisplatin” value ([1]; sub-population with tri-weekly cisplatin)?
Answer: The value was “not significantly different”.

Question: And the “TGF-β concentration vs placebo, cisplatin once a week” value ([1]; sub-population with weekly cisplatin)?
Answer: Its value is “significantly higher compared with placebo”.

Question: And the MTD ([2]; Stage 1, daily dose, approved for Stage 2)?
Answer: Its MTD is 2000 mg.

Question: And the “serious adverse events (SAE) across study arms” value ([2]; human, in vivo)?
Answer: The value was “no appreciable differences in SAEs were observed across the study arms”.

Question: What about the “attribution of reported AEs” value ([2]; human, in vivo, 7 weeks) of the same compound?
Answer: Its value is “all the reported AEs were attributable to chemoradiation treatment and not to EC-18”.

Question: And the “reduction of incidence of SOM compared to placebo population” value ([3]; EC-18 group vs placebo)?
Answer: Its value is “over 35%”.

Question: And the “therapeutic benefit over the control group” value ([3]; EC-18 up to 2000 mg/day, 7 weeks, with radiation and cisplatin)?
Answer: The value was “clear therapeutics benefit over the control group”.

Question: And the “delay of SOM onset compared with placebo” value [3, 6]?
Answer: Its value is 8 days.

Question: What about the “delay of first opioid use vs placebo, mean” value [3, 6] of the same compound?
Answer: The value was 6.3 days.

Question: What about the “delay of first opioid use vs placebo, median” value [3, 6] of the same compound?
Answer: The value was 11.5 days.

Question: What about the “time to SOM onset” value ([3]; PP population, EC-18 2,000 mg, placebo 43 days) of the same compound?
Answer: The value was 51 days.

Question: And the “incidence of SOM through active treatment period” value ([3]; PP population, baseline through 7-week active treatment period, EC-18 2,000 mg, placebo 65.0%)?
Answer: Its value is 36.4%.

Question: What about the “incidence of SOM (number of subjects)” value ([3]; PP population, baseline through active treatment period and STFU, EC-18 2000 mg (n=22), placebo 14) of the same compound?
Answer: The value was 10.

Question: What about the “incidence of SOM” value ([3]; PP population, baseline through active treatment period and STFU, EC-18 2000 mg, placebo 70.0%) of the same compound?
Answer: The value was 45.5% and 45%.

Question: And the “time to first use of opioid analgesics, median” value ([3]; PP population, evaluable subjects n=8, EC-18 2000 mg, placebo 25.5 days)?
Answer: The value was 37 days.

Question: And the “time to first use of opioid analgesics, mean” value ([3]; PP population, evaluable subjects n=8, EC-18 2000 mg, placebo 26 days)?
Answer: Its value is 32.3 days.

Question: What about the “SOM incidence at each week interval” value ([3]; PP population, weekly intervals, vs placebo) of the same compound?
Answer: Its value is “less than placebo group”.

Question: And the “incidence of SOM, HPV+” value ([3]; subjects with HPV+, EC-18 2000 mg, placebo 66.7%)?
Answer: Its value is 35.3%.

Question: And the “incidence of SOM, HPV−” value ([3]; subjects with HPV−, EC-18 2000 mg, placebo 71.4%)?
Answer: Its value is 75%.

Question: What about the “incidence of SOM, tri-weekly cisplatin” value ([3]; subjects with tri-weekly cisplatin, EC-18 2000 mg, placebo 70.0%) of the same compound?
Answer: Its value is 66.7%.

Question: What about the “incidence of SOM, weekly cisplatin” value ([3]; subjects with weekly cisplatin, EC-18 2000 mg, placebo 70.0%) of the same compound?
Answer: The value was 37.5%.

Question: And the “IL-1β concentration at 4th and 7th weeks” value ([4]; 4th and 7th weeks of treatment)?
Answer: Its value is “under the detection limit”.

Question: And the “IL-1β concentration vs placebo, HPV+/HPV−” value ([4]; regardless of HPV infection state)?
Answer: Its value is “significantly lower compared with the placebo group”.

Question: What about the “IL-1β concentration vs placebo, with or without SOM” value [4, 5] of the same compound?
Answer: The value was “significantly lower compared with the placebo group”.

Question: And the “IL-1β concentration vs placebo, weekly or tri-weekly cisplatin” value ([4]; regardless of the weekly or tri-weekly cisplatin treatment)?
Answer: The value was “significantly lower than in the placebo group”.

Question: And the “IL-1β concentration vs placebo, total” value ([4]; throughout seven weeks treatment period)?
Answer: Its value is “significantly lower than the placebo group”.

Source: patent publication US20240415798A1, “COMPOSITIONS AND METHODS FOR TREATING MUCOSITIS” (Enzychem Lifesciences Corporation, priority 2021, published 2024)
